Values of other authors as cited in patent US20090030057A1, “Pharmaceutical composition of telmisartan” (priority 2005, published 2009).
Where two headings read alike, the source gives them in different places.

solubility (in a strong acid (with the exception of hydrochloric acid)): sparingly soluble | solubility (in a strong base): soluble | solubility (in hydrochloric acid): insoluble | solubility (in water or an aqueous solution in the pH range of 3 to 9): practically insoluble
SMILES: CCCc1nc2c(C)cc(-c3nc4ccccc4n3C)cc2n1Cc1ccc(-c2ccccc2C(=O)O)cc1 [Telmisartan, 4′-[2-n-propyl-4-methyl-6-(1-methylbenzimid-azol-2-yl)benzimidazol-1-ylmethyl]biphenyl-2-carboxylic acid]
